PubChem BioAssay AID1963846 (Molecular Pharmacology Branch, DTP, NCI, 2024)

Test system: 454973-116-R2-J3-PDC complex spheroid viability
Assay: Anticancer human tumor 454973-116-R2-J3-PDC patient-derived pancreatic carcinoma cell line growth inhibition [POLQ]
Details: for IC50: curve of first compound; for viability, T/C: stronger effect = lower value; active means viability on the fitted dose curve at most 10% of control; inactive means the rest
Outline: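 Complex spheroid viability model combining PDC tumour cells with endothelial (HUVEC) and MSC stromal cells. Novobiocin, ART-558 or RP6685 were tested singly and in combination with standard and investigational anticancer drugs. Each was titrated in half-log steps from near clinical Cmax, or from 10 microM where Cmax was unknown.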
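Further: spheroids exposed to drugs for seven days before measurement.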
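Wherever viability, T/C is given: percent viability relative to DMSO vehicle control wells taken as 100%.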

CCCS(=O)(=O)Nc1ccc(F)c(C(=O)c2c[nH]c3ncc(-c4ccc(Cl)cc4)cc23)c1F + Nc1ccc(C#CCN(C(=O)Cc2ncc(C(F)(F)F)cc2C(F)(F)F)c2ccc(F)cc2)nn1
inactive: viability, T/C (second compound 0.0316 µM, first compound 0.0316 µM) 106% | viability, T/C (second compound 0.0316 µM, first compound 0.1 µM) 109% | viability, T/C (second compound 0.0316 µM, first compound 0.316 µM) 117% | viability, T/C (second compound 0.0316 µM, first compound 1 µM) 114% | viability, T/C (second compound 0.0316 µM, first compound 3.16 µM) 114% | viability, T/C (second compound 0.0316 µM, first compound 10 µM) 40.7% | viability, T/C (second compound 0.1 µM, first compound 0.0316 µM) 104% | viability, T/C (second compound 0.1 µM, first compound 0.1 µM) 109% | viability, T/C (second compound 0.1 µM, first compound 0.316 µM) 108% | viability, T/C (second compound 0.1 µM, first compound 1 µM) 115% | viability, T/C (second compound 0.1 µM, first compound 3.16 µM) 113% | viability, T/C (second compound 0.1 µM, first compound 10 µM) 37.6% | viability, T/C (second compound 0.316 µM, first compound 0.0316 µM) 106% | viability, T/C (second compound 0.316 µM, first compound 0.1 µM) 109% | viability, T/C (second compound 0.316 µM, first compound 0.316 µM) 110% | viability, T/C (second compound 0.316 µM, first compound 1 µM) 114% | viability, T/C (second compound 0.316 µM, first compound 3.16 µM) 120% | viability, T/C (second compound 0.316 µM, first compound 10 µM) 39.5% | viability, T/C (second compound 1 µM, first compound 0.0316 µM) 112% | viability, T/C (second compound 1 µM, first compound 0.1 µM) 116% | viability, T/C (second compound 1 µM, first compound 0.316 µM) 116% | viability, T/C (second compound 1 µM, first compound 1 µM) 117% | viability, T/C (second compound 1 µM, first compound 3.16 µM) 114% | viability, T/C (second compound 1 µM, first compound 10 µM) 40.4% | viability, T/C (second compound 3.16 µM, first compound 0.0316 µM) 116% | viability, T/C (second compound 3.16 µM, first compound 0.1 µM) 118% | viability, T/C (second compound 3.16 µM, first compound 0.316 µM) 112% | viability, T/C (second compound 3.16 µM, first compound 1 µM) 115% | viability, T/C (second compound 3.16 µM, first compound 3.16 µM) 113% | viability, T/C (second compound 3.16 µM, first compound 10 µM) 39.3% | viability, T/C (second compound 10 µM, first compound 0.0316 µM) 133% | viability, T/C (second compound 10 µM, first compound 0.1 µM) 116% | viability, T/C (second compound 10 µM, first compound 0.316 µM) 117% | viability, T/C (second compound 10 µM, first compound 1 µM) 116% | viability, T/C (second compound 10 µM, first compound 3.16 µM) 116% | viability, T/C (second compound 10 µM, first compound 10 µM) 28.9%
8.46 µM: IC50 (second compound 3.16 µM)
7.56 µM: IC50 (second compound 10 µM)
8.22 µM: IC50 (second compound 0.1 µM)
8.45 µM: IC50 (second compound 0.316 µM)
8.62 µM: IC50 (second compound 0.0316 µM) | IC50 (second compound 1 µM)
